In patent publication US8338471B2, “(2,5-dioxoimidazolidin-i-yl)-n-hydroxy-acetamides as metalloproteinase inhibitors” (Medivir AB, priority 2005, dated 2012):

Key:
Format in all cases: biochemical
recombinant human TACE = biological target: T1, recombinant human TACE (Homo sapiens, UniProt P78536); assay: TACE enzyme assay (FRET substrate), selectivity versus MMP-12; conditions: fold difference in Ki for TACE compared to MMP-12
T1 construct: purchased R&D Systems
Protocol: The activity was measured by a continuous detection of increased fluorescence intensity during 12 min. The substrate consisted of a peptide with a fluorescent donor 7-methoxycoumarin (Mca) and a quenching acceptor 2,4-dinitrophenyl group (Dpa), typically Mca-P-L-A-Q-A-V-Dpa-R-S-S-S-R-NH2 (R&D Systems, ES003). The cleavage site by TACE is the peptide bond between Ala and Val. The compounds were tested at a range of concentrations while the enzyme and substrate concentrations were fixed. A typical TACE assay employs recombinant human TACE (supplied by R&D Systems) in an assay buffer (25 mM Tris-HCl, pH=9.0, 2.5 μM ZnCl2, 0.005% Brij 35). The enzyme concentration (TACE) used was 100 ng/ml, the substrate was prepared at a 100 μM stock solution in DMSO and a 96-well polypropylene plate was used for the reaction mixtures. To each well of the plate was added assay buffer 90.0 μl, enzyme (TACE) 0.09 μl and inhibitor 1 μl. The reactions were started by addition of substrate 10 μl/well, giving a substrate concentration of 10 μM and a total volume of 100 μl/well. The total concentration of DMSO was not above 1%. The assay was performed at ambient temperature. Product fluorescence ([…]) was monitored with a Thermo Labsystems Fluoroskan Ascent plate reader. The Ki was determined by Prism Software.
(§1) The selectivity for MMP-12 over MMP-3 and TACE was evaluated for a representative selection of the compounds of the invention by comparing the Ki figures obtained when tested in the corresponding enzyme assays, such as those described above. The selectivity is presented as the fold difference in Ki for TACE and MMP-3 compared to MMP-12 and is calculated as the ratio Ki(TACE)/KiMMP-12 and Ki(MMP-3)/KiMMP-12 respectively.

recombinant human MMP-3 = biological target: T2, recombinant human MMP-3 (Homo sapiens, UniProt P08254); assay: MMP-3 enzyme assay (FRET substrate), selectivity versus MMP-12; conditions: fold difference in Ki for MMP-3 compared to MMP-12
T2 construct: purchased R&D Systems
Protocol: The activity was measured by a continuous detection of increased fluorescence intensity during 12 min. The substrate consisted of a peptide with a fluorescent donor 7-methoxycoumarin (Mca) and a quenching acceptor 2,4-dinitrophenyl group (Dpa), typically Mca-Arg-Pro-Lys-Pro-Val-Glu-Nval-Trp-Arg-Lys(Dnp)-NH2 (R&D Systems, ES002). The cleavage site by MMP-3 is the peptide bond between Glu and Nval. The compounds were tested at a range of concentrations, the enzyme concentration (MMP-3) was fixed at 400 ng/ml and the substrate concentrations was 10 μM. The MMP-3 assay used employs recombinant human MMP-3 (supplied by R&D Systems) in an assay buffer of 50 mM Tris-HCl, 200 mM calcium acetate at pH=7.5. The MMP-3 enzyme was preactivated by dilution to 0.119 mg/ml into 1 mM APMA (p-aminophenylmercuric acetate) followed by incubation at 37° C. for 24 hours. The substrate was prepared at a 100 μM stock solution in DMSO and a 96-well polypropylene plate was used for the reaction mixtures. To each well of the plate was added assay buffer 90.0 μl, enzyme (MMP-3) 0.3 μl and inhibitor 1 μl. The reactions were started by addition of substrate, 10 μl/well, to a total volume of 100 μl/well. The total concentration of DMSO was not above 1%. The assay was performed at ambient temperature. Product fluorescence ([…]) was monitored with a Thermo Labsystems Fluoroskan Ascent plate reader. The Ki was determined by Prism Software.
as §1

recombinant human MMP-12 = biological target: T3, recombinant human MMP-12 (Homo sapiens, UniProt P39900); assay: MMP-12 enzyme assay (FRET substrate)
T3 construct: purchased R&D Systems; host or cells: mouse myeloma cell line NS-40 (so in the source)
Protocol: A typical MMP-12 enzyme assay employs recombinant human MMP-12 catalytic domain expressed and purified as described by Parkar A. A. et al, (2000), Protein Expression and Purification, 20:152. The purified enzyme can be used to monitor inhibitors of activity as follows: MMP-12 (50 ng/ml final concentration) is incubated for 60 minutes at room temperature with the synthetic substrate Mac-Pro-Cha-Gly-Nva-His-Ala-Dpa-NH2 in assay buffer (0.1M “Tris-HCl” (trade mark) buffer, pH 7.3 containing O.1M NaCl, 20 mM CaCl2, 0.020 mM ZnCl and 0.05% (w/v) “Brij 35” (trade mark) detergent) in the presence (5 concentrations) or absence of inhibitors. Activity is determined by measuring the fluorescence at λex 320 nm and λem 405 nm. Percent inhibition is calculated as follows: % Inhibition is equal to the (Fluorescenceplus inhibitor−Fluorescencebackground); divided by the (Fluorescenceminus inhibitor−Fluorescencebackground);
A favoured assay employs full length recombinant human MMP-12, amino acid residues 1 to 470 (Shapiro et al 1993, J Biol Chem 268:23824-23829) expressed in mouse myeloma cell line NS-40. The purified rhMMP-12 typically has the N terminal sequence L17PLNSSTSLE and an SDS-PAGE apparent molecular mass of approx. 56 kDa. Such proteins are available from R&D Systems, USA as a lyophilised 0.2 um filtered solution of 25 mM MES, 0.15M NaCl, 10 mMCaCl2, 0.15% Brij 35, pH 5.5. Auto-activation of the rhMMP-12 can be achieved by dilution to 0.05 mg/ml into TCNB buffer (50 mMTris, 10 mM CaCl2, 0.15M NaCl, 0.05% Brij 35, pH 7) and incubation at 37 degrees for 30 hours. A preferred buffer for MMP work is 50 mM Tris.HCl, pH 7.5, 200 mM Ca acetate.
Suitable FRET substrates include (7-methoxycoumarin-4-yl)acetyl-Pro-Leu-Gly-Leu-(3-(2,4-dinitrophenoyl)-L-2,3-diaminopropionyl)-Ala-Arg-NH2, commercially available from R&D Systems, USA. Typical specific activities are >500 picomol/min/ug, with rhMMP-12 measured with 10 uM of this substrate, 20 ng activated enzyme in 100 ul TCNB buffer at room temperature.
An alternative general MMP substrate is Dnp-PLGLWAD-R-NH2.
Category A indicates ≦50 nM inhibition, category B indicates 51-200 nM inhibition and category C indicates >200 nM: […]

T2 sequence (P08254 100-477): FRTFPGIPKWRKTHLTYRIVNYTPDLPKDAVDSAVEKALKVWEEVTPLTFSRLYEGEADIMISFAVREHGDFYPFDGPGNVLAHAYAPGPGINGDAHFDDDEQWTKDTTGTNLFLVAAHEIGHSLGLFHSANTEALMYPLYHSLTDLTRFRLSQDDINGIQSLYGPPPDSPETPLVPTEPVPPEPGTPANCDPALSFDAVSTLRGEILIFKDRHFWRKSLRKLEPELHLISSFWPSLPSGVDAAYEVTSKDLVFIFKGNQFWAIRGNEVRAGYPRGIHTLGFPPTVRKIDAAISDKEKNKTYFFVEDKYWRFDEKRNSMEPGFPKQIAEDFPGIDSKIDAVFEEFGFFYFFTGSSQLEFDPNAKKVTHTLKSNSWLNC
T3 sequence (P39900 106-470): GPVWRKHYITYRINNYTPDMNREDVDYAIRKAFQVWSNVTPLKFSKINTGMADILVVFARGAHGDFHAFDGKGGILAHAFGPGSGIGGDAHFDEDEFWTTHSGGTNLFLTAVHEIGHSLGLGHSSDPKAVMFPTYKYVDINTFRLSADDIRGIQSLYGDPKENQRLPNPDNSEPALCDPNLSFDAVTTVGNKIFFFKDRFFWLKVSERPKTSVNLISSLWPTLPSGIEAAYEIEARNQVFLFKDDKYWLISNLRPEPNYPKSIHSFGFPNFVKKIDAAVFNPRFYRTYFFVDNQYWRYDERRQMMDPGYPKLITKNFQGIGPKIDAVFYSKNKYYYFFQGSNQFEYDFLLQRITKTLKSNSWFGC
T1 sequence (P78536 215-824): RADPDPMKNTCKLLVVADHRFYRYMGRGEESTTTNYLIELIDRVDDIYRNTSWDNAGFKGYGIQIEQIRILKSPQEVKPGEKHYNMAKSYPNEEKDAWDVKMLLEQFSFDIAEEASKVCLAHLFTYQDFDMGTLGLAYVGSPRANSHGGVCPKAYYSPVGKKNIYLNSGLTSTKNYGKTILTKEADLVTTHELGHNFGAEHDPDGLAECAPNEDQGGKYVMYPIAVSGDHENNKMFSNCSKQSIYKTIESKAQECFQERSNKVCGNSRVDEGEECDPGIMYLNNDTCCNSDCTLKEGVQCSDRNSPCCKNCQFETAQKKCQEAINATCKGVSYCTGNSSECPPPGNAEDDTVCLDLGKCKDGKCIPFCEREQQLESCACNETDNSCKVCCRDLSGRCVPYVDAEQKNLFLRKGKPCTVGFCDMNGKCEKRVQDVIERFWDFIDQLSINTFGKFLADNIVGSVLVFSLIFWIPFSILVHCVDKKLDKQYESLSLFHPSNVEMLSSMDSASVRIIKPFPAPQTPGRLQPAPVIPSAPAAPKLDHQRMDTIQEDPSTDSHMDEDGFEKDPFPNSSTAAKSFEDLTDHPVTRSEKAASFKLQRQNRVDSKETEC

In the case of CC(C)[C@H](C(=O)NO)N1C(=O)N[C@@H](CCc2ccc(-c3ccccc3)cc2)C1=O (stereo in doubt) [Example 5, 2-[4-(2-Biphenyl-4-yl-ethyl)-2,5-dioxo-imidazolidin-1-yl]-N-hydroxy-3-methyl-butyramide], the “Ki(TACE)/Ki(MMP-12)” value (recombinant human TACE) is reported as over 4500 and the “Ki(MMP-3)/Ki(MMP-12)” value (recombinant human MMP-3) is reported as 71.
In the case of CC(C)[C@H](C(=O)NO)N1C(=O)N[C@@H](COCc2ccc(Br)cc2)C1=O (stereo in doubt) [Example 13i, 2-[4-(4-Bromobenzyloxymethyl)-2,5-dioxo-imidazolidin-1-yl]-N-hydroxy-3-methyl-butyramide], the “Ki(TACE)/Ki(MMP-12)” value (recombinant human TACE) is reported as over 190 and the “Ki(MMP-3)/Ki(MMP-12)” value (recombinant human MMP-3) is reported as over 190.
In the case of CC(C)[C@H](C(=O)NO)N1C(=O)N[C@@H](CCc2ccc(Oc3ccccc3)cc2)C1=O (stereo in doubt) [Example 26, 2-{2,5-Dioxo-4-[2-(4-phenoxyphenyl)-ethyl]-imidazolidin-1-yl}-N-hydroxy-3-methyl-butyramide], the Ki (recombinant human MMP-12) is reported as at most 50 nM.
CC(C)[C@H](C(=O)NO)N1C(=O)N[C@@H](CCc2ccccc2)C1=O [Example 1] was tested, and the “Ki(TACE)/Ki(MMP-12)” value (recombinant human TACE) was 380 and the “Ki(MMP-3)/Ki(MMP-12)” value (recombinant human MMP-3) was 140.
With CC(C)[C@H](C(=O)NO)N1C(=O)N[C@H](CCc2ccccc2)C1=O [Example 7, 2-(2,5-Dioxo-4-phenethyl-imidazolidin-1-yl)-N-hydroxy-3-methyl-butyramide] the Ki (recombinant human MMP-12) was 51 to 200 nM, the “Ki(TACE)/Ki(MMP-12)” value (recombinant human TACE) was over 80 and the “Ki(MMP-3)/Ki(MMP-12)” value (recombinant human MMP-3) was 53.
For O=C(NO)[C@@H](Cc1ccccc1)N1C(=O)N[C@@H](CCc2ccccc2)C1=O [Example 10, 2-(2,5-Dioxo-4-phenethyl-imidazolidin-1-yl)-N-hydroxy-3-phenhyl-propionamide], the Ki (recombinant human MMP-12) was at most 50 nM, the “Ki(TACE)/Ki(MMP-12)” value (recombinant human TACE) was over 150 and the “Ki(MMP-3)/Ki(MMP-12)” value (recombinant human MMP-3) was 34.
With CC(C)(C)[C@H](C(=O)NO)N1C(=O)N[C@@H](CCc2ccccc2)C1=O [Example 12, 2-(2,5-Dioxo-4-phenethyl-imidazolidin-1-yl)-N-hydroxy-3,3-dimethyl-butyramide] the “Ki(TACE)/Ki(MMP-12)” value (recombinant human TACE) was 245 and the “Ki(MMP-3)/Ki(MMP-12)” value (recombinant human MMP-3) was 122.
With CC(C)[C@H](C(=O)NO)N1C(=O)N[C@@H](COCc2ccc(C(F)(F)F)cc2)C1=O [Example 14, 2-[2,5-Dioxo-4-(4-trifluoromethyl-bezyloxymethyl)-imidazolidin-1-yl]-N-hydroxy-3-methyl-butyramide] the Ki (recombinant human MMP-12) was at most 50 nM, the “Ki(TACE)/Ki(MMP-12)” value (recombinant human TACE) was over 500 and the “Ki(MMP-3)/Ki(MMP-12)” value (recombinant human MMP-3) was over 500.
With CC(C)[C@H](C(=O)NO)N1C(=O)N[C@@H](COCc2cccc(F)c2)C1=O [Example 15, 2-[4-(3-Fluorobenzyloxymethyl)-2,5-dioxo-imidazolidin-1-yl]-N-hydroxy-3-methyl-butyramide] the Ki (recombinant human MMP-12) was 51 to 200 nM, the “Ki(TACE)/Ki(MMP-12)” value (recombinant human TACE) was over 700 and the “Ki(MMP-3)/Ki(MMP-12)” value (recombinant human MMP-3) was 120.
For CC(C)[C@H](C(=O)NO)N1C(=O)N[C@@H](CCCCNC(=O)c2ccccc2)C1=O [Example 25h], the Ki (recombinant human MMP-12) was over 200 nM.
Compound Cc1ccccc1CCC1NC(=O)N(C(C(=O)NO)C(C)C)C1=O (centres unmarked) [Example 28, 2-[2,5-Dioxo-4-(2-o-tolylethyl)-imidazolidin-1-yl]-N-hydroxy-3-methyl-butyramide] has a Ki (recombinant human MMP-12) of at most 50 nM.
Compound Cc1cccc(CCC2NC(=O)N(C(C(=O)NO)C(C)C)C2=O)c1 (centres unmarked) [Example 29, 2-[2,5-Dioxo-4-(2-m-tolylethyl)-imidazolidin-1-yl]-N-hydroxy-3-methyl-butyramide] has a Ki (recombinant human MMP-12) of at most 50 nM.
For Cc1ccc(CCC2NC(=O)N(C(C(=O)NO)C(C)C)C2=O)cc1 (centres unmarked) [Example 30, 2-[2,5-Dioxo-4-(2-p-tolylethyl)-imidazolidin-1-yl]-N-hydroxy-3-methyl-butyramide], the Ki (recombinant human MMP-12) was at most 50 nM, the “Ki(TACE)/Ki(MMP-12)” value (recombinant human TACE) was 2200 and the “Ki(MMP-3)/Ki(MMP-12)” value (recombinant human MMP-3) was 75.
Work on COc1ccccc1CCC1NC(=O)N(C(C(=O)NO)C(C)C)C1=O (centres unmarked) [Example 31, N-Hydroxy-2-{4-[2-(2-methoxyphenyl)-ethyl]-2,5-dioxo-imidazolidin-1-yl}-3-methyl-butyramide] yielded a Ki (recombinant human MMP-12) of at most 50 nM.
For COc1cccc(CCC2NC(=O)N(C(C(=O)NO)C(C)C)C2=O)c1 (centres unmarked) [Example 32, N-Hydroxy-2-{4-[2-(3-methoxyphenyl)-ethyl]-2,5-dioxoimidazolidin-1-yl}-3-methylbutyramide], the “Ki(TACE)/Ki(MMP-12)” value (recombinant human TACE) was 140 and the “Ki(MMP-3)/Ki(MMP-12)” value (recombinant human MMP-3) was over 200.
Compound COc1ccc(CC[C@@H]2NC(=O)N([C@@H](C(=O)NO)C(C)C)C2=O)cc1 [Example 33, N-Hydroxy-2-{4-[2-(4-methoxyphenyl)-ethyl]-2,5-dioxoimidazolidin-1-yl}-3-methylbutyramide] has a Ki (recombinant human MMP-12) of at most 50 nM.
Compound CCc1ccc(CC[C@@H]2NC(=O)N([C@@H](C(=O)NO)C(C)C)C2=O)cc1 [Example 34, 2-{4-[2-(4-Ethylphenyl)-ethyl]-2,5-dioxoimidazolidin-1-yl}-N-hydroxy-3-methyl-butyramide] has a Ki (recombinant human MMP-12) of at most 50 nM.
For CC(C)[C@H](C(=O)NO)N1C(=O)N[C@@H](CCc2ccccc2F)C1=O [Example 36, 2-{4-[2-(2-Fluorophenyl)-ethyl]-2,5-dioxoimidazolidin-1-yl}-N-hydroxy-3-methylbutyramide], the Ki (recombinant human MMP-12) was at most 50 nM, the “Ki(TACE)/Ki(MMP-12)” value (recombinant human TACE) was 280 and the “Ki(MMP-3)/Ki(MMP-12)” value (recombinant human MMP-3) was 240.
Work on CC(C)[C@H](C(=O)NO)N1C(=O)N[C@@H](CCc2cccc(F)c2)C1=O [Example 37, 2-{4-[2-(3-Fluoro-phenyl)-ethyl]-2,5-dioxoimidazolidin-1-yl}-N-hydroxy-3-methylbutyramide] yielded a Ki (recombinant human MMP-12) of at most 50 nM.
CC(C)[C@H](C(=O)NO)N1C(=O)N[C@@H](CCc2ccc(Cc3ccccc3)cc2)C1=O [Example 39, 2-{4-[2-(4-Benzylphenyl)-ethyl]-2,5-dioxoimidazolidin-1-yl}-N-hydroxy-3-methylbutyramide] showed a Ki (recombinant human MMP-12) of at most 50 nM.
For CC(C)[C@H](C(=O)NO)N1C(=O)N[C@@H](CCc2ccc(C(=O)Cc3ccccc3)cc2)C1=O [Example 40, 2-{2,5-Dioxo-4-[2-(4-phenylacetyl-phenyl)-ethyl]-imidazolidin-1-yl}-N-hydroxy-3-methylbutyramide], the Ki (recombinant human MMP-12) was at most 50 nM.
